Measured values from patent US20140364431A1, “Quinoline and cinnoline derivatives and their applications” (Shenyang Pharmaceutical University, priority 2011, published 2014).
Values after ≈ are worked out from the molar mass of the structure shown. Structures can show the parent of a compound that is named as a salt. Where two headings read alike, the source gives them in different places.

Experiments:
[1] = system: HT-29 (colon cancer cell); assay: In vitro anti-tumor cellular activity (MTT), HT-29; format: cell-based, human; settings: for IC50: Homo sapiens, read-out: HT-29 IC50
[2] = system: U87MG (Human malignant glioblastoma cells); assay: In vitro anti-tumor cellular activity (MTT), U87MG; format: cell-based; settings: for IC50: Homo sapiens, U-87 MG, read-out: U87MG IC50
[3] = system: H460 (human lung cancer cell); assay: In vitro anti-tumor cellular activity (MTT), H460; format: cell-based; settings: for IC50: Homo sapiens, read-out: H460 IC50
[4] = system: SMMC-7721 (hepatoma cell); assay: In vitro anti-tumor cellular activity (MTT), SMMC-7721; format: cell-based, human; settings: for IC50: Homo sapiens, read-out: SMMC-7721 IC50
[5] = system: MKN-45 (human gastric carcinoma cell); assay: In vitro anti-tumor cellular activity (MTT), MKN-45; format: cell-based; settings: for IC50: Homo sapiens, read-out: MKN-45 IC50

| SMILES | IC50 ([1]; HT-29, 72 h) [µg/mL] | IC50 ([2]; 72 h) [µg/mL] | IC50 ([3]; NCI-H460, 72 h) [µg/mL] | IC50 ([4]; SMMC-7721, 72 h) [µg/mL] | IC50 ([5]; MKN-45, 72 h) [µg/mL] | other results |
| --- | --- | --- | --- | --- | --- | --- |
| N.N.[Cl][Pt][Cl] [Cisplatin, reference compound] |  |  |  |  |  | HT-29 IC50 ([1]; MTT, 72 hours, HT-29): 1 µg/mL; U87MG IC50 ([2]; MTT, 72 hours, U87MG): 0.19 µg/mL; H460 IC50 ([3]; MTT, 72 hours, H460): 0.23 µg/mL; SMMC-7721 IC50 ([4]; MTT, 72 hours, SMMC-7721): 0.9 µg/mL; MKN-45 IC50 ([5]; MTT, 72 hours, MKN-45): 0.68 µg/mL |
| COc1cc2c(Oc3ccc(NC(=O)c4nn(-c5ccc(Br)cc5)c5ccccc5c4=O)cc3F)ccnc2cc1OCCCN1CCCCC1.Cl.Cl [Example 3, N-(3-fluoro-4-((6-methoxy-7-(3-(piperidin-1-yl)propoxy)quinolin-4-yl)oxy)phenyl)-1-(4-bromophenyl)-4-oxo-1,4-dihydrocinnoline-3-carboxamide dihydrochloride] | 0.86 | 1.2 | 0.3 | 0.63 | 0.34 |  |
| COc1cc2c(Oc3ccc(NC(=O)c4nn(-c5ccccc5C(F)(F)F)c5ccccc5c4=O)cc3F)ccnc2cc1OCCCN1CCOCC1 [Example 4, N-(3-fluoro-4-((6-methoxy-7-(3-(morpholin-4-ylpropoxy)quinolin-4-yl)oxy)phenyl)-1-(2-(trifluoromethyl)phenyl)-4-oxo-1,4-dihydrocinnoline-3-carboxamidedihydrochloride] | 1.2 | 0.8 | 1 | 0.9 | 2 |  |
| COc1cc2c(Oc3ccc(NC(=O)c4nn(-c5cccc(C(F)(F)F)c5)c5ccccc5c4=O)cc3F)ccnc2cc1OCCCN1CCCCC1 [Example 6, N-(3-fluoro-4-((6-methoxy-7-(3-(piperidin-1-yl)propoxy)quinolin-4-yl)oxy)phenyl)-1-(3-(trifluoromethyl)phenyl)-4-oxo-1,4-dihydrocinnoline-3-carboxamide] | 0.63 (≈ 0.849 µM) | 1.4 (≈ 1.89 µM) | 1.7 (≈ 2.29 µM) | 1.3 (≈ 1.75 µM) | 0.1 (≈ 0.135 µM) |  |
| COc1cc2c(Oc3ccc(NC(=O)c4nn(-c5cccc(F)c5)c5ccccc5c4=O)cc3F)ccnc2cc1OCCCN1CCCCC1 [Example 9, N-(3-fluoro-4-((6-methoxy-7-(3-(piperidin-1-yl)propoxy)quinolin-4-yl)oxy)phenyl)-1-(3-fluorophenyl)-4-oxo-1,4-dihydrocinnoline-3-carboxamide] | 0.17 (≈ 0.246 µM) | 1.2 (≈ 1.73 µM) | 0.007 (≈ 0.0101 µM) | 0.65 (≈ 0.94 µM) | 0.0075 (≈ 0.0108 µM) |  |
| COc1cc2c(Oc3ccc(NC(=O)c4nn(-c5ccc(Cl)cc5)c5ccccc5c4=O)cc3F)ccnc2cc1OCCCN1CCCCC1 [Example 10, N-(3-fluoro-4-((6-methoxy-7-(3-(piperidin-1-yl)propoxy)quinolin-4-yl)oxy)phenyl)-1-(4-chlorophenyl)-4-oxo-1,4-dihydrocinnoline-3-carboxamide] | 0.42 (≈ 0.593 µM) | 0.86 (≈ 1.21 µM) | 0.06 (≈ 0.0847 µM) | 1 (≈ 1.41 µM) | 0.087 (≈ 0.123 µM) |  |
| COc1cc2c(Oc3ccc(NC(=O)c4nn(-c5ccc(F)cc5Br)c5ccccc5c4=O)cc3F)ccnc2cc1OCCCN1CCCC1 [Example 18, N-(3-fluoro-4-((6-methoxy-7-(3-(pyrrolidin-1-yl)propoxy)quinolin-4-yl)oxy)phenyl)-1-(2-bromo-4-fluorophenyl)-4-oxo-1,4-dihydrocinnoline-3-carboxamide] | 0.9 (≈ 1.19 µM) | 0.8 (≈ 1.06 µM) | 1.3 (≈ 1.72 µM) | 2.1 (≈ 2.78 µM) | 1.5 (≈ 1.98 µM) |  |
| COc1cc2c(Oc3ccc(NC(=O)c4nn(-c5cc(C(F)(F)F)ccc5Cl)c5ccccc5c4=O)cc3F)ccnc2cc1OCCCN1CCCC1 [Example 22, N-(3-fluoro-4-((6-methoxy-7-(3-(pyrrolidin-1-yl)propoxy)quinolin-4-yl)oxy)phenyl)-1-(2-chloro-5-(trifluoromethyl)phenyl)-4-oxo-1,4-dihydrocinnoline-3-carboxamide] | 0.81 (≈ 1.06 µM) | 0.96 (≈ 1.26 µM) | 0.54 (≈ 0.709 µM) | 0.54 (≈ 0.709 µM) | 0.28 (≈ 0.367 µM) |  |
| COc1cc2c(Oc3ccc(NC(=O)c4nn(-c5ccc(C)cc5C)c5ccccc5c4=O)cc3F)ccnc2cc1OCCCN1CCCC1 [Example 25, N-(3-fluoro-4-((6-methoxy-7-(3-(pyrrolidin-1-yl)propoxy)quinolin-4-yl)oxy)phenyl)-1-(2,4-dimethylphenyl)-4-oxo-1,4-dihydrocinnoline-3-carboxamide] | 1.1 (≈ 1.6 µM) | 2.9 (≈ 4.22 µM) | 0.89 (≈ 1.29 µM) | 0.76 (≈ 1.11 µM) | 1.5 (≈ 2.18 µM) |  |
| COc1cc2c(Oc3ccc(NC(=O)c4nn(-c5ccc(Cl)cc5Cl)c5ccccc5c4=O)cc3F)ccnc2cc1OCCCN1CCCCC1 [Example 27, N-(3-fluoro-4-((6-methoxy-7-(3-(piperidin-1-yl)propoxy)quinolin-4-yl)oxy)phenyl)-1-(2,4-dichlorophenyl)-4-oxo-1,4-dihydrocinnoline-3-carboxamide] | 1.8 (≈ 2.42 µM) | 0.6 (≈ 0.808 µM) | 1.5 (≈ 2.02 µM) | 0.9 (≈ 1.21 µM) | 2.1 (≈ 2.83 µM) |  |
| COc1cc2c(Oc3ccc(NC(=O)c4nn(-c5c(Cl)cccc5Cl)c5ccccc5c4=O)cc3F)ccnc2cc1OCCCN1CCCCC1 [Example 29, N-(3-fluoro-4-((6-methoxy-7-(3-(piperidin-1-yl)propoxy)quinolin-4-yl)oxy)phenyl)-1-(2,6-dichlorophenyl)-4-oxo-1,4-dihydrocinnoline-3-carboxamide] | 0.44 (≈ 0.592 µM) | 0.74 (≈ 0.996 µM) | 0.77 (≈ 1.04 µM) | 1.2 (≈ 1.62 µM) | 0.67 (≈ 0.902 µM) |  |
| COc1cc2c(Oc3ccc(NC(=O)c4nn(-c5c(Cl)cccc5Cl)c5ccccc5c4=O)cc3F)ccnc2cc1OCCCN1CCC(C)CC1 [Example 30, N-(3-fluoro-4-((6-methoxy-7-(3-(4-methylpiperidin-1-yl)propoxy)quinolin-4-yl)oxy)phenyl)-1-(2,6-dichlorophenyl)-4-oxo-1,4-dihydrocinnoline-3-carboxamide] | 0.49 (≈ 0.648 µM) | 0.27 (≈ 0.357 µM) | 0.7 (≈ 0.925 µM) | 0.1 (≈ 0.132 µM) | 0.5 (≈ 0.661 µM) |  |
| COc1cc2c(Oc3ccc(NC(=O)c4nn(-c5c(Cl)cccc5Cl)c5ccccc5c4=O)cc3F)ccnc2cc1OCCCN1CCCC1 [Example 31, N-(3-fluoro-4-((6-methoxy-7-(3-(pyrrolidin-1-yl)propoxy)quinolin-4-yl)oxy)phenyl)-1-(2,6-dichlorophenyl)-4-oxo-1,4-dihydrocinnoline-3-carboxamide] | 0.27 (≈ 0.371 µM) | 0.26 (≈ 0.357 µM) | 0.77 (≈ 1.06 µM) | 0.33 (≈ 0.453 µM) | 0.18 (≈ 0.247 µM) |  |
| COc1cc2c(Oc3ccc(NC(=O)c4nn(-c5ccccc5Cl)c5ccccc5c4=O)cc3F)ccnc2cc1OCCCN1CCOCC1 [Example 33, N-(3-fluoro-4-((6-methoxy-7-(3-(morpholin-4-yl)propoxy)quinolin-4-yl)oxy)phenyl)-1-(2-chlorophenyl)-4-oxo-1,4-dihydrocinnoline-3-carboxamide] | 0.9 (≈ 1.27 µM) | 1.4 (≈ 1.97 µM) | 2.2 (≈ 3.1 µM) | 1.6 (≈ 2.25 µM) |  |  |
| COc1cc2c(Oc3ccc(NC(=O)c4nn(-c5ccccc5Br)c5ccccc5c4=O)cc3F)ccnc2cc1OCCCN1CCOCC1 [Example 34, N-(3-fluoro-4-((6-methoxy-7-(3-(morpholin-4-yl)propoxy)quinolin-4-yl)oxy)phenyl)-1-(2-bromophenyl)-4-oxo-1,4-dihydrocinnoline-3-carboxamide] | 0.43 (≈ 0.57 µM) | 0.65 (≈ 0.861 µM) | 0.7 (≈ 0.928 µM) | 1.5 (≈ 1.99 µM) | 1.3 (≈ 1.72 µM) |  |
| COc1cc2c(Oc3ccc(NC(=O)c4nn(-c5ccccc5OC(F)(F)F)c5ccccc5c4=O)cc3F)ccnc2cc1OCCCN1CCOCC1 [Example 37, N-(3-fluoro-4-((6-methoxy-7-(3-(morpholin-4-yl)propoxy)quinolin-4-yl)oxy)phenyl)-1-(2-(trifluoromethoxy)phenyl)-4-oxo-1,4-dihydrocinnoline-3-carboxamide] | 0.9 (≈ 1.18 µM) | 2.1 (≈ 2.76 µM) | 1.9 (≈ 2.5 µM) | 1.5 (≈ 1.97 µM) | 2.3 (≈ 3.03 µM) |  |
| COc1cc2c(Oc3ccc(NC(=O)c4nn(-c5cccc(F)c5)c5ccccc5c4=O)cc3F)cnnc2cc1OCCCN1CCN(C)CC1 [Example 62, N-(3-fluoro-4-((6-methoxy-7-(3-(4-methylpiperazin-1-yl)propoxy)cinnolin-4-yl)oxy)phenyl)-1-(3-fluorophenyl)-4-oxo-1,4-dihydrocinnoline-3-carboxamide] |  |  |  |  |  | IC50 ([1]; MTT, 72 hours, HT-29): 2.1 µg/mL (≈ 2.97 µM); IC50 ([2]; MTT, 72 hours, U87MG): 1.4 µg/mL (≈ 1.98 µM); IC50 ([3]; NCI-H460, MTT, 72 hours, H460): 0.8 µg/mL (≈ 1.13 µM); IC50 ([4]; MTT, 72 hours, SMMC-7721): 2.1 µg/mL (≈ 2.97 µM); IC50 ([5]; MTT, 72 hours, MKN-45): 3.6 µg/mL (≈ 5.09 µM) |
